Source: patent US8809368B2, “Compounds affecting gap junction activity” (Kansas State University Research Foundation, priority 2006, dated 2014)
≈ marks a conversion by molar mass, not a printed value.

Key:
Trypanosoma brucei = assay: Anti-trypanosomal activity, inhibition of T. brucei growth (ATP-bioluminescence luciferase assay); format: cell-based; settings: read-out: IC50 against Trypanosoma brucei
Procedure: The antiparasitic activities of exemplary compounds described here was studied using the anti-trypanosomal activity protocol described in: Rapp M, et al. J Med Chem 2006; 49:2096-102. […] FIG. 1 summarizes the compound inhibition of T. brucei growth. It is seen that compounds of the invention are useful in inhibiting T. brucei growth.
Culturing of Parasites. The bloodstream form of Trypanosoma brucei 427 strain was maintained under the standard cell culture conditions (37° C., 5% CO2). The parasites were grown in complete HMI-9 medium containing 10% FBS, 10% Serum Plus and 1× Penicillin/Streptomycin. (Angew. Chem. Int. Ed. Engl. 2003, 42, 5274-5293).
Luciferase Assay. Luciferase assay was used to measure ATP-bioluminescence in T. brucei cultured in 96-well plates at 37° C. for 48 hours. Parasites were diluted to 1.0×10^5 cells/mL in complete HMI-9 medium. One hundred microliters (100 μL) of the diluted parasites were aliquoted into sterile 96-well flat white opaque culture plates (Greiner). Each compound was serially diluted from 10 μM to 0.1 μM in DMSO and then mixed in the appropriate wells containing parasites. The treated parasites were then incubated for 48 hours at 37° C. with 5% CO2 before monitoring viability. To measure the viability of the parasites after treatment with each compound, the parasites were lysed in the wells by adding 100 μL of CellTiter-Glo™ (Promega). After lysis, the ATP bioluminescence of the 96-well plates was measured with a SpectraFluor Plus multidetection plate reader (Tecan).

[1] = system: MDA-MB-453 human breast cancer cells; assay: Soft agar colony growth, MDA-MB-453 cells; format: cell-based; settings: Table 2
Procedure: (§1) FIG. 3(A) MDA-MB-453 and (B) T47D human breast cancer cells were treated with 10 μM of various quinolines for 7 days. Base agar plates were prepared containing 0.8% agar and 0.4% agar in Ham's F12. Cells (5×10^4 cells/33 mm well) were suspended in 100 μl of Ham's F12 with 0.4% agar and plated. These plates were maintained at 37° C. for 7 days and examined for the presence of colonies. Individual colonies of 40 μm or greater were examined. […] However, PQ3 caused a 2.3-fold increase in colony growth in MDA-MB-453 cells and PQ2 caused a 2.6-fold increase in T47D colony growth compared to DMSO. FIGS. 7 and 8 show MDA-MB-453 and T47D colony growth for various concentrations of PQ1 and SA tested for 7 days. The procedures are generally as described above. The cell colony growth decreased using 10 and 100 nM PQ1 for both cell types. Colony Growth Assay: T47D human breast cancer cells were treated with PQ1. Base agar plates were prepared containing 0.8% agar and 0.4% agar in Ham's F12. Cells (5×10^4 cells/33 mm2 well) were suspended in 100 μl of Ham's F12 with 0.4% agar and plated. These plates were maintained at 37° C. for 7 days and examined for the presence of colonies. Individual colonies of 40 um or greater were examined.

[2] = system: T47D human breast cancer cells; assay: Soft agar colony growth, T47D cells; format: cell-based; settings: for effect on breast cancer cell colony growth: Table 2
Procedure: Base agar plates were prepared containing 0.8% agar and 0.4% agar in Ham's F12. Cells (5×10^4 cells/33 mm^2 well) were suspended in 100 μl of Ham's F12 with 0.4% agar and plated. These plates were maintained at 37° C. for 7 days and examined for the presence of colonies. Individual colonies of 50 μm or greater were examined. T47D cells were treated with 1, 10 and 100 nM PQ1 and SA (succinic acid) as a solvent control. Individual colonies of 50 μm or greater were examined. Statistical significance, *p<0.05, of at least three experiments
as §1, with “types.” for “types. Colony Growth Assay: T47D human breast cancer cells were treated with PQ1. Base agar plates were prepared containing 0.8% agar and 0.4% agar in Ham's F12. Cells (5×10^4 cells/33 mm2 well) were suspended in 100 μl of Ham's F12 with 0.4% agar and plated. These plates were maintained at 37° C. for 7 days and examined for the presence of colonies. Individual colonies of 40 um or greater were examined.”
(§2) Colony Growth Assay: T47D human breast cancer cells were treated with PQ1. Base agar plates were prepared containing 0.8% agar and 0.4% agar in Ham's F12. Cells (5×10^4 cells/33 mm2 well) were suspended in 100 μl of Ham's F12 with 0.4% agar and plated. These plates were maintained at 37° C. for 7 days and examined for the presence of colonies. Individual colonies of 40 um or greater were examined.
Various oncogenes (e.g. ras, raf, neu, src, mos) down-regulate GJIC while several tumor suppressor genes can up-regulate GJIC. […] Cells were grown in soft agar to assess their capacity for anchorage-independent growth, which is a key feature of cell transformation due to the importance of cell-cell and cell-matrix based tumor suppression. MEC and T47D cells were treated with 10, 100, 1000, and 10000 nM PQ1 for 7 days. A graphical presentation of three experiment results is presented in log scale of PQ1 concentration. […] A 100 nM PQ1 inhibits 66% of colony growth compared to controls, without PQ1 treatment or 100 nM succinic acid.
as §2, with “Using Soft Agar. Cells” for “Assay: T47D human breast cancer cells”, “0, 10, 100, 200 and 500 nM PQ1 for 7 days.” for “PQ1.”, “mm^2” for “mm2”, “50 μm” for “40 um”

MDA-MB-453 cells = assay: Gap junction activity (GJIC), flow cytometry of dye coupling, MDA-MB-453 cells; format: cell-based, human; settings: MDA-MB-453; for effect on gap junction intercellular communication: Table 1, concentration not given
Procedure: FIG. 4(A) MDA-MB-453 and (B) T47D cells were treated with low (500 nM) and high (10 μM) concentrations of PQs for 24 hours. Monolayers of acceptor cell population were grown on 25-cm flasks in the presence of Vibrant DiD. Vybrant DiD in acceptor cells is not able to pass through the gap junctions because of its hydrophobic property. Single cell suspensions of donor treated cells were prepared, labeled with 0.05 μg/ml calcein-AM, incubated at 37 C for 5 minutes. Quantification of dye coupling between the donor and acceptor cells was assessed by dual-excitation flow cytometry. […] Cells treated with 10 μM PQ3 have approximately 40-50% decrease in gap junction activity compared control or DMSO.

MDA-MB-231 = assay: Gap junction intercellular communication, MDA-MB-231 cells; format: cell-based, human; settings: Table 1
MCF-7 = assay: Gap junction intercellular communication, MCF-7 cells; format: cell-based, human; settings: Table 1
ZR75 = assay: Gap junction intercellular communication, ZR75 cells; format: cell-based, human; settings: Table 1
HT29 = assay: Gap junction intercellular communication, HT29 colon cancer cells; format: cell-based; settings: Table 3
SW620 colon cancer cells = assay: Gap junction activity, SW620 colon cancer cells; format: cell-based
Procedure: However, PQ3 has an opposite effect on mammary cancer cell lines. […] A summary of PQ-mediated GJIC activity and colony growth in breast and colon cancer cells is presented in Tables 1, 2, and 3, as well as FIGS. 10-13. In FIG. 10, SW620 cells were dosed for 24 hours with PQ1 at 100, 200, 300, and 500 nM. The gap junction activity was measured as a percent of control, as previously described. It was seen that all concentrations on PQ1 increased the gap junction activity in SW620 colon cancer cells as compared to the control. In FIG. 11, the effect of PQ1 on the expression of PKCγ was studied at concentrations of 100, 200, 300 and 500 nM PQ1 for 24 hours. It is seen in FIG. 11 that PQ1 has no effect on the expression of PKCγ at the levels tested. In FIGS. 12 and 13, the effect of PQ1 on the colony growth of SW620 colon cancer cells was measured with 1-100 nM PQ1 (FIG. 12) and 10 uM PQ1 (FIG. 13).

R28 cells = assay: Dye transfer/scrape loading gap junction assay in R28 cells; format: cell-based, rat; settings: 10 μM for 40 minutes, compared to untreated control cells
Procedure: To determine the effects of the compounds of the invention on gap junctions, […] R28 cells and lucifer yellow dye and rhodamine dextran were used to study gap junction. (Das, S.; Lauer, J.; Barnett, M.; Lin, D.; Akoev, V.; Battina, S.; Hua, D. H.; Takemoto, D. J. PKCγ phosphorylates connexin50 on serine-430. A presentation at 2006 ARVO Annual Meeting, Apr. 30-May 4, 2006, Fort Lauderdale, Fla.). […] The cells were treated with different compounds as shown @ 10 μM for 40 minutes. A mixture of lucifer yellow (LY) and rhodamine dextran (RD) was added to the cells at the center of the coverslip. Two cuts across the coverslip were made to form a transient tear in the plasma membranes of the cells to permit dye transfer through gap junctions. Cells were incubated with the dye for 20 minutes, then fixed and examined by fluorescent microscopy. For quantitative analysis the extent of dye transfer was estimated by counting the number of LY and RD labeled cells in the microscopic field and graphed. […] PQ3 is useful as a drug having reduced gap junction inhibitory activity. The gap junction activity of other compounds of the invention may be tested as described herein without the use of undue experimentation.
Gap junction activity assay. R28 cells were grown to 90% confluency on coverslips. They were treated with PQ1 at 10 μM for 40 min. A mixture of 1% each, in PBS, Lucifer yellow (LY) and Rhodamine Dextran (RD) (Molecular Probes, Eugene, Oreg.) were added to the cells at the center of the coverslip. Two cuts across the coverslip were made to form a transient tear in the plasma membranes of the cells to permit dye entry into cells. Cells were incubated with 2.5 μl of both of the dyes for 20 min, then fixed in 2.5% paraformaldehyde, washed in PBS and examined by fluorescent microscopy using a Nikon C1 confocal microscopy. For quantitation, the extent of dye transfer was calculated by counting the number of LY-labeled cells from the initial scrape with subtraction of RD-labeled cells, as a cell damage control, in the microscopic field. Four points per slide were photographed. The experiments were repeated six times, and data are means±SEM.

Row | Compound | IC50 (Trypanosoma brucei) [µg/mL] | effect on breast cancer cell colony growth [1] | increase in colony growth ([2]; 10 μM, 7 days, compared to DMSO) [fold] | effect on breast cancer cell colony growth [2] | effect on gap junction activity (MDA-MB-453 cells; 24 hours) | effect on gap junction intercellular communication (MDA-MB-453 cells) | effect on gap junction intercellular communication (MDA-MB-231) | effect on gap junction intercellular communication (MCF-7) | effect on gap junction intercellular communication (ZR75) | effect on gap junction intercellular communication (HT29) | effect on gap junction intercellular communication (SW620 colon cancer cells; Table 3, 6 uM) | effect on colony growth ([2]; 10 μM, 7 days) | effect on gap junction intercellular communication (SW620 colon cancer cells; Table 3, concentration not given) | block of lucifer yellow dye transfer through gap junctions (R28 cells) | block of lucifer yellow dye transfer through gap junctions (R28 cells; listed as MQ)
1 | COc1cc([N+](=O)[O-])c2nccc(C)c2c1Oc1cccc(C(F)(F)F)c1 [PQ2, 6-Methoxy-4-methyl-8-nitro-5-(3-trifluoromethylphenyloxy)quinoline] | 2.5 (≈ 6.6 µM) | No effect | 2.6 | Increase | no significant effect | No effect | Decrease | Decrease | No effect | Increase | Increase |  |  |  | 
2 | COc1cc([N+](=O)[O-])c(N)cc1Oc1cccc(C(F)(F)F)c1 [PQ4, 4-Amino-5-nitro-2-(3-trifluoromethylphenyloxy)anisole] | 25 (≈ 76.2 µM) | No effect |  | Decrease |  | No effect | Decrease | No effect | No effect | Increase |  | inhibitory effect | No effect |  | 
3 | OC(c1cc(C(F)(F)F)nc2c(C(F)(F)F)cccc12)C1CCCCN1 (centres unmarked) [mefloquine, reference compound] |  |  |  |  |  |  |  |  |  |  |  |  |  | blocked dye transfer significantly | hardly any passage of the dye
